This is an account of results in article PMC6395927, “Rufomycin Targets ClpC1 Proteolysis in Mycobacterium tuberculosis and M. abscessus” (Antimicrobial Agents and Chemotherapy, 2019).

For orientation: IC50 means the concentration needed to halve the response being measured. Low readings indicate greater potency, high ones weaker potency.

In brackets after ≈: the same amount, converted by molar mass. Like-named read-outs stand apart in the source and are kept apart here. Numbered stars: 1 amine (or outer) side, 2 acyl side, 3 side chain; on linkers, the order of the positions; unused ones are H or OH. Square brackets hold non-standard residues; d marks the D form. Peptide text beside a SMILES is read from it. ξ: configuration not given here. Trp(1-(1,1-Me2-allyl)) = C=CC(C)(C)n1cc(C[C@H](N)C(=O)O)c2ccccc21; X4 = CC(C)(C1CO1)n1cc(C[C@H](N[*:1])C(=O)[*:2])c2ccccc21; Tyr(3-NO2) = N[C@@H](Cc1ccc(O)c([N+](=O)[O-])c1)C(=O)O; X3 = CC(CC(C(=O)[*:2])N(C)[*:1])C(=O)O; Gly(E-crotyl) = C/C=C/C[C@H](N)C(=O)O; NMeL = CN[C@@H](CC(C)C)C(=O)O; ξNMeL = CNC(CC(C)C)C(=O)O Some results are limits rather than exact numbers.

Experiment [1] deals with Candida albicans (ATCC 10231). The experiment in a line: MIC against nonmycobacteria (OD570). Type of experiment: cell-based. Conditions: ATCC10231, C. albicans. An excerpt:
Standard compounds used were ampicillin (AMP) and gentamicin (GEN). […] Amphotericin B (AmphB) and ketoconazole (KETO) were used as standard compounds.

Experiment [2] deals with M. tuberculosis strain H37Rv (ATCC 27294). Description: microbe, parasite or virus in culture. Type of experiment: cell-based, Mycobacterium tuberculosis.
Experiment [3] concerns M. tuberculosis 5 global clade representatives. The experiment in a line: microbe, parasite or virus in culture. In kind it is cell-based. Conditions: Mycobacterium tuberculosis, read-out: MICs.
The test system of a further experiment is M. avium (ATCC 15769). Description: microbe, parasite or virus in culture. Type of experiment: cell-based. Conditions: Mycobacterium avium, ATCC15769.
The subject of the next experiment is M. chelonae (ATCC 35752). The experiment in a line: microbe, parasite or virus in culture. In kind it is cell-based, Mycobacterium chelonae. Conditions: Mycobacteroides chelonae, ATCC35752.
For experiment [4], the system named is M. abscessus (ATCC 19977). The experiment in a line: microbe, parasite or virus in culture. Conditions: Mycobacteroides abscessus. Type of experiment: cell-based, Mycobacterium abscessus.
A further experiment concerns M. kansasii (ATCC 12478). Description: microbe, parasite or virus in culture. In kind it is cell-based. Conditions: Mycobacterium kansasii, ATCC12478.
A further experiment deals with M. marinum (ATCC 927). Description: microbe, parasite or virus in culture. In kind it is cell-based. Conditions: Mycobacterium marinum, ATCC927.
The subject of another experiment is M. bovis (ATCC 35734). The experiment in a line: microbe, parasite or virus in culture. In kind it is cell-based. Conditions: Mycobacterium tuberculosis variant bovis, ATCC35734.
For another experiment, the system named is Vero cell (ATCC CRL-81). Description: cells. Type of experiment: cell-based. Conditions: Chlorocebus sabaeus, 72 h.
The subject of experiment [5] is M. smegmatis (ATCC 700084). The experiment in a line: microbe, parasite or virus in culture. Conditions: Mycolicibacterium smegmatis, ATCC700084. Type of experiment: cell-based.
Experiment [6] relates to J774A.1 macrophage (ATCC TIB-67). Description: Cytotoxicity in mammalian cells (resazurin). In kind it is cell-based, murine. Conditions: Mus musculus, J774.A1; J774, 72 h. (Alamar Blue is a resazurin reagent that responds to reducing activity.)
In experiment [7] the test system is MDA-MB-435 melanoma cells. The experiment in a line: Cytotoxicity against cancer cell lines (CellTiter 96). Type of experiment: cell-based. Conditions: Homo sapiens; MDA-MB-435, paclitaxel column. The protocol:
(§1) Human melanoma cancer cells (MDA-MB-435), human breast cancer cells (MDA-MB-231), and human ovarian cancer cells (OVCAR3) were purchased from the American Type Culture Collection (Manassas, VA). Each cell line was propagated at 37°C in 5% CO2 in RPMI 1640 medium supplemented with FBS (10%), penicillin (100 U/ml), and streptomycin (100 μg/ml). Cells in log phase were harvested by trypsinization, followed by two washing cycles to remove all traces of enzyme. A total of 5,000 cells were seeded per well of a 96-well clear, flat-bottom plate (Microtest 96; Falcon) and incubated overnight (37°C in 5% CO2). Samples dissolved in DMSO were then diluted and added to the respective wells. The cells were incubated in the presence of test substance for 72 h at 37°C and evaluated for viability with a commercial absorbance assay (CellTiter 96 AQueous One Solution cell proliferation assay; Promega Corp., Madison, WI) that measured viable cells. IC50 values are expressed in micromolar values relative to the solvent (DMSO) control.

Experiment [8] deals with MDA-MB-231 breast cancer cells. Described as above. Type of experiment: cell-based. Conditions: Homo sapiens; MDA-MB-231, paclitaxel column. The protocol:
as §1

For experiment [9], the system named is OVCAR 3 ovarian cancer cells. The description is as above. Type of experiment: cell-based. Conditions: Homo sapiens; OVCAR 3, paclitaxel column. The method, then:
as §1

Where [10] appears, read: Mycobacterium tuberculosis, read-out: MIC against M. tuberculosis.

In [1], `CC(=O)N1CCN(c2ccc(OCC3COC(Cn4ccnc4)(c4ccc(Cl)cc4Cl)O3)cc2)CC1` (stereo not shown) [KETO, ketoconazole] displayed an MIC of 0.98 µM (≈ 0.521 µg/mL).
As to `CC(=O)NC[C@H]1CN(c2ccc(N3CCOCC3)c(F)c2)C(=O)O1` [LZD, linezolid], the MIC in experiment [2] (Mycobacterium tuberculosis) is 1.8 µM (≈ 0.607 µg/mL); in experiment [3] it was 0.41 to 1.6 µM (≈ 0.138 to 0.54 µg/mL).
As for `COc1c(N2C[C@@H]3CCCN[C@@H]3C2)c(F)cc2c(=O)c(C(=O)O)cn(C3CC3)c12` [MXF, moxifloxacin], the MIC in experiment [2] (Mycobacterium tuberculosis) turned out to be 0.26 µM (≈ 0.104 µg/mL).
Take `O=[N+]([O-])c1cn2c(n1)OC[C@@H](OCc1ccc(OC(F)(F)F)cc1)C2` [PA824, pretomanid]: the MIC in the experiment on M. avium (ATCC 15769) (M. avium, read-out: MIC) is above 8 µM; in the experiment with M. chelonae (ATCC 35752) (M. chelonae, read-out: MIC), above 8 µM; in [4] (ATCC19977, M. abscessus, read-out: MIC), above 8 µM; in the experiment on M. kansasii (ATCC 12478) (M. kansasii, read-out: MIC), 4.7 µM (≈ 1.69 µg/mL); in [2] (Mycobacterium tuberculosis) it was 0.04 µM (≈ 0.0144 µg/mL); in the experiment on M. marinum (ATCC 927) (M. marinum, read-out: MIC), above 8 µM. Moreover, the MIC is 0.1 µM (≈ 0.0359 µg/mL) in the experiment on M. bovis (ATCC 35734) and 0.03 to 0.1 µM (≈ 0.0108 to 0.0359 µg/mL) in experiment [3].
As to `CO[C@H]1/C=C/O[C@@]2(C)Oc3c(C)c(O)c4c(O)c(c(/C=N/N5CCN(C)CC5)c(O)c4c3C2=O)NC(=O)/C(C)=C\C=C\[C@H](C)[C@H](O)[C@@H](C)[C@@H](O)[C@@H](C)[C@H](OC(C)=O)[C@@H]1C` [RIF, rifampin], the MIC is 0.16 µM (≈ 0.132 µg/mL) against M. avium (ATCC 15769); above 4 µM against M. chelonae (ATCC 35752); above 4 µM in [4] (ATCC19977); 0.15 µM (≈ 0.123 µg/mL) with M. kansasii (ATCC 12478); 0.04 µM (≈ 0.0329 µg/mL) in experiment [2] (Mycobacterium tuberculosis); 0.05 µM (≈ 0.0411 µg/mL) in the experiment on M. marinum (ATCC 927). Moreover, the MIC was below 0.02 µM against M. bovis (ATCC 35734), above 120 µM in [5] and 0.01 to 0.027 µM (≈ 0.00823 to 0.0222 µg/mL) in experiment [3]. Besides, the IC50 in the experiment with Vero cell (ATCC CRL-81) was 120 µM; in experiment [6] it was 95 µM.
For the compound `[H]/N=C(/N)N[C@H]1[C@H](O)[C@@H](O)[C@H](O[C@@H]2O[C@@H](C)[C@](O)(C=O)[C@H]2O[C@@H]2O[C@@H](CO)[C@H](O)[C@@H](O)[C@@H]2NC)[C@@H](N/C(N)=N\[H])[C@@H]1O` [STR, streptomycin], the MIC in experiment [2] (Mycobacterium tuberculosis) amounted to 0.15 µM (≈ 0.0872 µg/mL).
As to `C/C=C/C[C@@H]1NC(=O)[C@H](CC(C)C)NC(=O)C(CC(C)C(=O)O)N(C)C(=O)[C@H](C)NC(=O)[C@H](Cc2ccc(O)c([N+](=O)[O-])c2)NC(=O)[C@H](CC(C)C)N(C)C(=O)[C@H](Cc2cn(C(C)(C)C3CO3)c3ccccc23)NC1=O` (stereo partly shown) [VII] (cyclo(A[X3]L[Gly(E-crotyl)][X4][NMeL][Tyr(3-NO2)])), the MIC in experiment [2] (setting [10]) stood at 1 µM (≈ 1.06 µg/mL).
Same read-out and setting: with `C=CC(C)(C)n1cc(C[C@@H]2NC(=O)[C@H](C/C=C/C)NC(=O)[C@H](CC(C)C)NC(=O)C(CC(C)C)N(C)C(=O)[C@H](C)NC(=O)[C@H](Cc3ccc(O)cc3)NC(=O)[C@H](CC(C)C)N(C)C2=O)c2ccccc21` (stereo partly shown) [VI] (cyclo(A[ξNMeL]L[Gly(E-crotyl)][Trp(1-(1,1-Me2-allyl))][NMeL]Y)) the figure was above 50 µM.
For the compound `C/C=C/C[C@@H]1NC(=O)[C@H](CC(C)C)NC(=O)C(CC(C)C)N(C)C(=O)[C@H](C)NC(=O)[C@H](Cc2ccc(O)c([N+](=O)[O-])c2)NC(=O)[C@H](CC(C)C)N(C)C(=O)[C@H](Cc2cn(C(C)(C)C3CO3)c3ccccc23)NC1=O` (stereo partly shown) [V] (cyclo(A[ξNMeL]L[Gly(E-crotyl)][X4][NMeL][Tyr(3-NO2)])), in experiment [2] (setting [10]), the MIC came to 0.07 µM (≈ 0.072 µg/mL).
Take `CC(=O)O[C@H]1C(=O)[C@@]2(C)[C@H]([C@H](OC(=O)c3ccccc3)[C@]3(O)C[C@H](OC(=O)[C@H](O)[C@@H](NC(=O)c4ccccc4)c4ccccc4)C(C)=C1C3(C)C)[C@]1(OC(C)=O)CO[C@@H]1C[C@@H]2O` [paclitaxel]: the IC50 in [7] was 0.1 nM; in [8], 170 nM; in experiment [9], 1.5 nM.
On to capreomycin, for which the MIC in experiment [2] came to 0.39 µM.
